Earlier results as cited in patent publication US20110212192A1, “INGESTIBLES CONTAINING SUGAR AND CINNAMON OR GINSENG” (ALLEGIANCE EQUITY CORPORATION, priority 2008, published 2011).

What was measured:
Settings in all cases: immunoblotting; mouse 3T3-L1 adipocytes
tristetraprolin (TTP) = tested on: tristetraprolin (TTP)
insulin receptor (IR) = tested on: insulin receptor (IR)
[1] = tested on: glucose transporter 4 (GLUT4)

insulin
increased: level of tristetraprolin (TTP) protein (tristetraprolin (TTP)) | level of insulin receptor (IR) protein (insulin receptor (IR)) | level of glucose transporter 4 (GLUT4) protein [1]
